The target in one data set is hCav1.2/β2/α2δ channels (Homo sapiens, UniProt Q13936). Nature of the data set: CaV1.2 manual patch clamp, CHO cells (CR-CLE). The settings on record: manual patch clamp, room temperature, read-out: CaV 1.2 IC50. In kind it is cell-based. The source says:
Stocks were maintained in cryogenic storage. […] Each culture dish was identified by a notation of channel name, passage number, and date.
Rationale for Selection of Ion Channel and Expression Systems: Reduction of ICa,L is associated with action potential shortening in atrial fibrillation (Van Wagoner, et al., Circ Res 85:428-436 (1999)) while augmentation of ICa,L current may produce action potential prolongation (Ahmmed, et al., Circ Res 86:558-570 (2000)) and early after depolarizations (January, et al., Circ Res 62:563-571 (1988)). ICa.L is produced by the combination of calcium channel subunits encoded by CACNA1C (α1-subunit), CACNB2 (β2-subunit) and CACNA2D1 (α2δ-subunit) cDNAs.
• Organism: Cricetulus griseus • Tissue: Ovary; transfected with human CACNA1C • (α1-subunit), CACNB2 (β2-subunit), and • CACNA2D1 (α2δ-subunit) cDNAs • Morphology: Epithelial • Age/Stage: Adult • Source Strain: ATCC, Manassas, VA • Source Substrain: CR-CLE
CHO Cell Culture Procedures: CHO cells were stably co-transfected with human CACNA1C (α1-subunit), CACNB2 (β2-subunit), and CACNA2D1 (α2δ-subunit) cDNAs. Stable transfectants were selected by coexpression of the cDNAs with antibiotic resistance genes for blasticidin, hygromycin, G418, and zeocin. Selection pressure was maintained by including these antibiotics in the culture medium. Cells were cultured in Ham's F12 Medium supplemented with 10% fetal bovine serum, penicillin-streptomycin (100 units/mL), blasticidin (10 μg/mL), zeocin (400 μg/mL), G418 (250 μg/mL) and hygromycin (250 μg/mL). To avoid Ca^2+-induced toxicity, verapamil (3 μmol/L) was added to the cultured cells.
hCav1.2/β2/α2δ-CHO is a tetracycline-inducible cell line. To induce expression, tetracycline at a final concentration of 1 μg/mL was added to media lacking the selection antibiotics. Currents were recorded greater than 16 hours post-induction.
Treatment Groups: All experiments were performed at room temperature. Each cell acted as its own control.
Each concentration was tested in at least three cells (n≥3).
Positive Control Group: The positive control article nifedipine (Sigma-Aldrich) was tested in two cells (n=2) at 0.1 μM. Previous results have shown that nifedipine at 0.1 μM inhibits hCav1.2 current by approximately 90%.
Electrophysiological Procedures: Cells were superfused with vehicle control solution. Micropipette solution for whole cell patch clamp recordings was composed of (mM): Cs-methanesulfonate (MES), 130; TEA-Cl, 20, MgCl2, 1; EGTA, 10; Mg-ATP, 4; Tris-GTP, 0.3, phosphocreatine di-(Tris) salt, 14, creatine phosphokinase, 50 U/mL, and HEPES, 10; pH adjusted to 7.2 with N-methyl-D-glucamine or CsOH. Micropipette solution was prepared in batches, aliquoted, stored frozen, and a fresh aliquot thawed each day. […] Before digitization, current records were low-pass filtered at one-fifth of the sampling frequency.
Experimental Procedures: Onset and steady inhibition was evaluated at a test potential of 0 mV (150 ms duration), repeated at ten-second intervals from a holding potential of −40 mV. Peak current was measured during the step to 0 mV. Peak current was monitored until a new steady state was achieved. hCav1.2 current was monitored until a new steady state was achieved and a steady state was maintained for at least 20 s before applying test article or positive control article formulations. […]
Nonlinear least squares fits were solved with the Solver add-in for Excel 2003 or later (Microsoft, Redmond, WA) and the IC50 was calculated.
(Patch clamp records ionic current or voltage across a cell membrane.)

Another data set concerns the target T1, hERG channel (Homo sapiens, UniProt Q12809).
T1 construct: host or cells: CHO cells, stably transfected
In words: hERG assay, whole cell recordings in CHO cells (AVIVA). To be noted: CHO cells stably expressing hERG, pH 7.4. Type of data set: cell-based. An outline of the steps:
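Whole-cell voltage clamp of CHO cells stably expressing hERG, held at −80 mV; steps to +20 mV for 5 s, then −50 mV for 5 s, with tail current measured against a −50 mV baseline, every 12 s. Compounds applied in 4 additions until steady state (max 12 min), vs 0.1% DMSO vehicle baseline.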
(The hERG channel carries a current that helps repolarise heart muscle cells.)

SMILES strings stand for the structures. pIC50: −log10 of the molar value.

T1 sequence (Q12809 whole entry): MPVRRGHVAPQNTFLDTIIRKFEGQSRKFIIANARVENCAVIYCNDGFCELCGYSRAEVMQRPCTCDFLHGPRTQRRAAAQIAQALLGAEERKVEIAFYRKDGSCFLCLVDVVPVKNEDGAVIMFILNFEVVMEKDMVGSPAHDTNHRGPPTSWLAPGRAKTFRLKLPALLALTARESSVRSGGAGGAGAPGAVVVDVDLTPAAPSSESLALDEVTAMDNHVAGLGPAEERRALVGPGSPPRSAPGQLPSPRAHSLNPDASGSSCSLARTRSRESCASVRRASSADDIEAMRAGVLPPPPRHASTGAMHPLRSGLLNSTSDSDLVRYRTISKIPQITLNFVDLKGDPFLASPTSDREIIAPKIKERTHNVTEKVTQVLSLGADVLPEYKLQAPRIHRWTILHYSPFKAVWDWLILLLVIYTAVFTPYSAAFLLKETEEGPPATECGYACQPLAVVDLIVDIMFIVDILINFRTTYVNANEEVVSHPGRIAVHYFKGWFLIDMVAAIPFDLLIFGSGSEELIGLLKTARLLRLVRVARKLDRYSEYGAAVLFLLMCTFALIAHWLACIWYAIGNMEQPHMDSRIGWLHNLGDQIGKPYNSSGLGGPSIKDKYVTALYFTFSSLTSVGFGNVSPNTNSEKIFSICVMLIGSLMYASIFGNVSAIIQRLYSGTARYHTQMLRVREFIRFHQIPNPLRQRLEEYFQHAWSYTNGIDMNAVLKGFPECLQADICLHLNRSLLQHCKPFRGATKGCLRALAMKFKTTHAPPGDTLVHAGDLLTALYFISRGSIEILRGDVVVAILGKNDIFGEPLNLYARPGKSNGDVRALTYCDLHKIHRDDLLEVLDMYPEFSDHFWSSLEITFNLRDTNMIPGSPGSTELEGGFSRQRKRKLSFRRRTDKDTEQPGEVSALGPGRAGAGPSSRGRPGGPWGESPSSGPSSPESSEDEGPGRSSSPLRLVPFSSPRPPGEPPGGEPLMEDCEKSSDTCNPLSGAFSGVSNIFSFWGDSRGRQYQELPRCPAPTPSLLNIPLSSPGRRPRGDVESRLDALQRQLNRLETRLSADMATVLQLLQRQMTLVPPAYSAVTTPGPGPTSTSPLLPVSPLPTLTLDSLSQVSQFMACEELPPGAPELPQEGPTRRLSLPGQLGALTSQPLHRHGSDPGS
Chain of hCav1.2/β2/α2δ channels (Q13936 whole entry): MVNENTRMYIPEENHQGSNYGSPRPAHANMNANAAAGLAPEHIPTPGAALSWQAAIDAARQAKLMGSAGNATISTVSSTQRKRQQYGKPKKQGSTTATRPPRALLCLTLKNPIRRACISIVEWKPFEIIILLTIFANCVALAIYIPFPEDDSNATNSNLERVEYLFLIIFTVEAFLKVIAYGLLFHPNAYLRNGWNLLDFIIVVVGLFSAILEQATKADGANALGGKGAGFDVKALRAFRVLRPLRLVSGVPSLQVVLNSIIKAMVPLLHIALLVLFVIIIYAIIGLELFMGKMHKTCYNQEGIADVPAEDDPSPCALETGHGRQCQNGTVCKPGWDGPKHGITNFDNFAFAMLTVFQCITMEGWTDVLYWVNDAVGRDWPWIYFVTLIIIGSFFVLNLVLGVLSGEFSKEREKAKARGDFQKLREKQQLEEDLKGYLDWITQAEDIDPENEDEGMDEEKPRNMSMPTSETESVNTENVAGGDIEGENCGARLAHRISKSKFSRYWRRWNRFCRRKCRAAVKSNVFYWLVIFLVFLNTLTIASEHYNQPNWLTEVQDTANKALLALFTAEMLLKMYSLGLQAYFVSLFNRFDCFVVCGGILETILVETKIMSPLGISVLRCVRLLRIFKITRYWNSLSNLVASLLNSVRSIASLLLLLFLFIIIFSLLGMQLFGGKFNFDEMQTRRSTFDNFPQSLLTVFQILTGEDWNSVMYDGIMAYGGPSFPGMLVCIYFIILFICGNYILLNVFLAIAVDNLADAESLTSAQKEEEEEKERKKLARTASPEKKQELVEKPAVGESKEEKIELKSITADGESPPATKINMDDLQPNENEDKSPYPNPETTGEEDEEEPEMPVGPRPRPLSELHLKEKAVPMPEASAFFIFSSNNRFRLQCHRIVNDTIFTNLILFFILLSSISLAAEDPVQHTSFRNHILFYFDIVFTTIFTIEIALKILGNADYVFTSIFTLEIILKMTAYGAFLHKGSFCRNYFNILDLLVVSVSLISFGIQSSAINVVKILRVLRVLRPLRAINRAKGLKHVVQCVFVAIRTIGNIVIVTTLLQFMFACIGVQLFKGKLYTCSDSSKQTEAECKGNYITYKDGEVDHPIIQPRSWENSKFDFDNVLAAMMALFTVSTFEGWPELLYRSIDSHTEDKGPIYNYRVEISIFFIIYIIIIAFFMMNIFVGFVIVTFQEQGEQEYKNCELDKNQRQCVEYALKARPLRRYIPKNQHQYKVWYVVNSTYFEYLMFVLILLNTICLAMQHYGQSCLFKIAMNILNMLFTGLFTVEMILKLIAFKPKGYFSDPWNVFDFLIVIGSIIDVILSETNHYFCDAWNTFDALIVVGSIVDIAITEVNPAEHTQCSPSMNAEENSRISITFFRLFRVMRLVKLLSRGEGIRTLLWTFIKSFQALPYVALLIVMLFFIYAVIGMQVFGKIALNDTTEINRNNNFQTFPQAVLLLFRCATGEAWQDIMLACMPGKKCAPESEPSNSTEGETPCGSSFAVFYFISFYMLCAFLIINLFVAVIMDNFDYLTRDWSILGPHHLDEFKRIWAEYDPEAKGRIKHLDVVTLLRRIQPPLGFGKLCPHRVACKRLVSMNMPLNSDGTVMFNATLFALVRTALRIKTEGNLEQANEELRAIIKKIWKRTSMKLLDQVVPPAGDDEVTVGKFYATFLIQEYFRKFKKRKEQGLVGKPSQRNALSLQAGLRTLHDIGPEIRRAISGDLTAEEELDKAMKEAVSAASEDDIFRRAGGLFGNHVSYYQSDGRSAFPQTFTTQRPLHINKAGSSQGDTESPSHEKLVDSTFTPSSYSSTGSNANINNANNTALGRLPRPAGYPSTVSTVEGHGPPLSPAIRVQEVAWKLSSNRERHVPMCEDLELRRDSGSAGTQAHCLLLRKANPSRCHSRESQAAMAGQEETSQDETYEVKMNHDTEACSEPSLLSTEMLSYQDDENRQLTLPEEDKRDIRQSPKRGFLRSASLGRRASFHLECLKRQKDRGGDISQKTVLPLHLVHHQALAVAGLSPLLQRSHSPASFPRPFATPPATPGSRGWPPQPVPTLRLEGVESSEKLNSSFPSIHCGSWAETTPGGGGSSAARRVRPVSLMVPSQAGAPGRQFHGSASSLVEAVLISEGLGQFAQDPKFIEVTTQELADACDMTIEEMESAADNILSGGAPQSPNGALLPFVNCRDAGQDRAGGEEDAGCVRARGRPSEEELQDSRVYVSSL
Chain of hCav1.2/β2/α2δ channels (Q08289 whole entry partner): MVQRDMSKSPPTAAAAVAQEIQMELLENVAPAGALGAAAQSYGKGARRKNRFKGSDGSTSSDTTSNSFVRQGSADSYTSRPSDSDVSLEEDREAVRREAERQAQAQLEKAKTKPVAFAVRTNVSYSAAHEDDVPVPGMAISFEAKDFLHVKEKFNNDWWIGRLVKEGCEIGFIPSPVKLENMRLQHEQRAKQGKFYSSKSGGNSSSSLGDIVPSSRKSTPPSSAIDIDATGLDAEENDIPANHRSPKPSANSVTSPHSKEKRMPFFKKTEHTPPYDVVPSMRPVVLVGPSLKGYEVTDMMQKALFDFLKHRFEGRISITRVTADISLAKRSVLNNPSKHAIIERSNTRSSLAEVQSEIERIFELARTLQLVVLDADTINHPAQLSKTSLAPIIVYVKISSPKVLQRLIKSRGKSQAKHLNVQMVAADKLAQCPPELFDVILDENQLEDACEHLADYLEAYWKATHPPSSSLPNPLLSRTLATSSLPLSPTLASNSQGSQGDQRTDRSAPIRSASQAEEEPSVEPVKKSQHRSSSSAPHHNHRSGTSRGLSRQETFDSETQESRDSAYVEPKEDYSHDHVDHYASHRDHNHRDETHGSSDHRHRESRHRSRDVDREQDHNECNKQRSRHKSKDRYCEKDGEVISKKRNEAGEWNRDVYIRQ
Chain of hCav1.2/β2/α2δ channels (P54289 25-956 partner limits assumed): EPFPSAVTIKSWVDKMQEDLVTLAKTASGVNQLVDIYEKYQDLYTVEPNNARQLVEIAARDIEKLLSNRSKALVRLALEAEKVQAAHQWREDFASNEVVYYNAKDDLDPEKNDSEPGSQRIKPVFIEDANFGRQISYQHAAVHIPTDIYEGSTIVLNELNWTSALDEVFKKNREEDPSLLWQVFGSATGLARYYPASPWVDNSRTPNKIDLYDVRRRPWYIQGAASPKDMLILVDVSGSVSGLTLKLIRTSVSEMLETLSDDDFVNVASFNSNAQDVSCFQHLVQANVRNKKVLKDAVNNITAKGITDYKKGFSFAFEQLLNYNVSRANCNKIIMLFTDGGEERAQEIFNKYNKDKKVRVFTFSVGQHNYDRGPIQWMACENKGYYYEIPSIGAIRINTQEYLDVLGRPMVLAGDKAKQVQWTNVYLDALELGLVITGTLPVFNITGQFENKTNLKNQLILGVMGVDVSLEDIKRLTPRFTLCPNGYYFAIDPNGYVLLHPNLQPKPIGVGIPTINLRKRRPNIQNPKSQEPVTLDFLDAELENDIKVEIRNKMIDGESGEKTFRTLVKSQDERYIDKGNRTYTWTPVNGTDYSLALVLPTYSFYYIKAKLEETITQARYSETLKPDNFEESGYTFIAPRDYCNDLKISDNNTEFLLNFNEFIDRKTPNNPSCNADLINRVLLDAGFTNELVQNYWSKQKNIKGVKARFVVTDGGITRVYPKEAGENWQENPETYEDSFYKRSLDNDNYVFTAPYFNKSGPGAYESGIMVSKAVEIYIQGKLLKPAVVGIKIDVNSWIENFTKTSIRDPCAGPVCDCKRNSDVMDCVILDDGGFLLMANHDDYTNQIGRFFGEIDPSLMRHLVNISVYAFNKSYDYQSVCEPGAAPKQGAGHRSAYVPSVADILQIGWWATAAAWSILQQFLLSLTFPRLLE
Chain of hCav1.2/β2/α2δ channels (P54289 957-1103 partner limits assumed): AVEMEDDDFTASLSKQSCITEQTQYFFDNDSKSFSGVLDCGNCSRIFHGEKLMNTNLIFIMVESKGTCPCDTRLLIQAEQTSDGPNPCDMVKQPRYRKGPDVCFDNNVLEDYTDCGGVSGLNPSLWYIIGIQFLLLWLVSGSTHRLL

Regarding `CC(C)COc1ccc(CNC(=O)N(Cc2ccc(F)cc2F)C2CCN(C)CC2)cc1` [Example 3, 1-[(2,4-difluorophenyl)methyl]-1-(1-methylpiperidin-4-yl)-3-{[4-(2-methylpropoxy)phenyl]methyl}urea], on hCav1.2/β2/α2δ channels, the pIC50 was 5.85. The same compound showed an inhibition at 1 µM against hERG channel of 33%.
As to `CN1CCC(N(Cc2ccc(F)cc2F)C(=O)NCc2ccc(OC3CC3)cc2)CC1` [Example 17, 3-[(4-cyclopropoxyphenyl)methyl]-1-[(2,4-difluorophenyl)methyl]-1-(1-methylpiperidin-4-yl)urea], the pIC50 on hCav1.2/β2/α2δ channels is 5.46. Moreover, testing at 1 µM against hERG channel gave an inhibition of 32%.
`CC(C)Oc1ccc(CNC(=O)N(Cc2ccc(F)cc2F)C2CCN(C)CC2)cc1` [Example 5, 1-[(2,4-difluorophenyl)methyl]-1-(1-methylpiperidin-4-yl)-3-{[4-(propan-2-yloxy)phenyl]methyl}urea]: the pIC50 at hCav1.2/β2/α2δ channels was 4.95. The compound also had an inhibition at 1 µM on hERG channel of 29%.

One may read the pIC50 as the negative decadic logarithm of the IC50, by convention in mol/L. The inhibition is the change of the read-out against control, counted positive when it falls. A high value points to strong suppression.

The values are drawn from patent US12139477B2, “Compounds, salts thereof and methods for treatment of diseases” (ACADIA PHARMACEUTICALS INC., priority 2017, dated 2024).
